# Measured values published in patent publication EP3818828A1 (priority 2019, dated 2021).
# Like-named read-outs stand apart in the source and are kept apart here.
# Key:
# Leveillula taurica = test: In-vivo greenhouse control of pepper powdery mildew
# Method: (§1) 5.61 g of 3-(3',4'-methylenedioxy phenyl)-piperidine acrylate was weighed and dissolved in 25 g of absolute ethyl alcohol, then 6 g of emulsifier 0203B was added, and mixed uniformly with stirring to get 14% of 3-(3',4'-methylenedioxy phenyl)-piperidine acrylate EC.
# Pepper seedling (Variety: Bell pepper) was carried out in a greenhouse, and the seedlings were transplanted into pots, 3 for each pot. Sick leaves of powdery mildew (Leveillula taurica) were harvested form peppers (Longjiao No. 2) in a solar greenhouse in Jingyuan County, Baiyin City, and formulated into a spore suspension of powdery mildew. Both sides of the pepper leaves were sprayed evenly with a small hand-held sprayer and inoculated. The first application was started at the early onset of powdery mildew. 14% of 3-(3',4'-methylenedioxy phenyl)-piperidine acrylate EC was diluted at four concentrations of 1.00, 0.667, 0.50 and 0.40 mg/mL (active ingredients); the control agent, 12.5% of myclobutanil EC, was diluted at a concentration of 0.063 mg/mL (active ingredients); additionally clear water was used as the control. The instrument for application is a small hand-held sprayer. Both sides of the leaves were sprayed evenly so that the leaves were wetted by the liquor without loss. Applications were conducted every 7 days consecutively for 3 times. 10 days after the third application, the disease extent of powdery mildew in the upper, middle and lower 3 leaves of each plant was investigated, to calculate the disease index and the control effect.
# Botrytis cinerea = test: Toxicity determination (EC50) on mycelial growth, growth rate method; assay type: cell-based
# Method: (§2) The inhibition of samples for testing on the mycelial growth of plant pathogenic fungi for testing is determined with a growth rate method. 3-(3',4'-methylenedioxy phenyl)-N-n-propyl acrylamide, 3-(3',4'-methylenedioxy phenyl)-piperidine acrylate and five control agents are dissolved with dimethyl sulfoxide (DMSO), then formulated at 5-7 concentrations of different gradients for test following the trial test results, with the same concentration of DMSO as the control solvent, each treatment in triplicate. Fungal cakes with a diameter of 4 mm are taken from the edge of the colony, inoculated into the center of a PDA plate containing different agents of different concentrations and the DMSO control, with one piece of fungal cake inoculated in each plate (with a diameter of […]), and incubated in a constant temperature incubator at a temperature of 22±1.5°C. 7 days later (10-20 days may be needed for some pathogenic fungi), the diameter of the colony is measured with a cross over method according to the mycelial growth profile of the control pathogenic fungi, then the inhibition rate of mycelial growth is calculated.
# (§3) 3-(3',4'-methylenedioxy phenyl)-piperidine acrylate, the control agents 96.5% of chlorothalonil technical and 97.0% of procymidone technical. Agents for testing and the control agents chlorothalonil and procymidone are treated at 5-8 concentrations of different gradients on the basis of preliminary tests to ensure that the inhibition rates for treatments at all the concentrations are between 10% and 90%.
# (§4) For specific determination methods, with reference to Embodiment 1. The concentration of active ingredients in the culture medium is used as the testing concentration to calculate the toxic regression equation (Y=bx+a) and the median inhibition concentration EC50, 95% confidence limit, and relative toxicity. Relative toxicity (compared to chlorothalonil) = EC50 of chlorothalonil / EC50 of 3-(3',4'-methylenedioxy phenyl)-piperidine acrylate, and relative toxicity (compared to procymidone) = EC50 of procymidone / EC50 of 3-(3',4'-methylenedioxy phenyl)-piperidine acrylate.
# Valsa mali = test: as above; assay type: cell-based; details: for EC50: median inhibition concentration
# Method: as §2, §3, §4
# Colletotrichum capsici = test: as above; assay type: cell-based; details: for EC50: median inhibition concentration
# Method: as §2, §3, §4
# Sclerotinia sclerotiorum = test: as above; assay type: cell-based
# Method: as §2, §3, §4
# Exserohilum turcicum = test: as above; assay type: cell-based; details: for EC50: median inhibition concentration
# Method: as §2, §3, §4
# F. graminearum = test: microbe, parasite or virus in culture; assay type: cell-based; details: for EC50: median inhibition concentration
# Magnaporthe grisea = test: microbe, parasite or virus in culture; assay type: cell-based; details: for EC50: median inhibition concentration
# Phytophthora infestans = test: microbe, parasite or virus in culture; assay type: cell-based; details: for EC50: median inhibition concentration
# [1] = tested on: damping-off (P. aphanidermatum, P.capsici); test: In-vivo greenhouse control of damping-off of peppers; details: Pepper; sick soil; 0.80 mg/mL (active ingredients)
# Method: 3.88 g of 3-(3',4'-methylenedioxy phenyl)-N-n-propyl acrylamide was weighed and dissolved in 25 g of absolute ethyl alcohol, then 6 g of emulsifier 0203B was added, and mixed uniformly with stirring to get 10% of 3-(3',4'-methylenedioxy phenyl)-N-n-propyl acrylamide EC.
# as §1
# Sick soil of damping-off (P. aphanidermatum, P.capsici) was collected from the fields of tomatoes, eggplants and peppers in a solar greenhouse, and mixed evenly in equal proportion. Tomatoes (Variety: Song Tian Fen Yang Yang, 100 grains), eggplants (Variety: Lanza No. 2 F1 long eggplant, 100 grains), pepper (Longjiao No. 2 F1, 100 grains) were seeded quantitatively with the sick soil in pots (diameter: 15 cm) in a greenhouse, additionally with sterile vermiculite as the control (each 100 grains for determining the germination rate). […] Mortality of seedlings was investigated after the seedlings had grown 2 true leaves, and the control effect of each treatment on damping-off was calculated. […]
# [2] = EC50 of chlorothalonil / EC50 of agent
# [3] = EC50 of procymidone / EC50 of agent
# [4] = median inhibition concentration
compound,measurement,setting,value
"O=C(/C=C/c1ccc2c(c1)OCO2)N1CCCCC1 [3-(3',4'-methylenedioxyphenyl)-piperidine acrylate]",Control Effect,Leveillula taurica; 0.50 mg/mL,75.56%
same,Control Effect,Leveillula taurica; 0.667 mg/mL,84.56%
same,Control Effect,Leveillula taurica; 1.00 mg/mL,100%
same,Relative Toxicity (Compared to Chlorothalonil),Botrytis cinerea; [2],0.84
same,Relative Toxicity (Compared to Procymidone),Botrytis cinerea; [3],0.37
same,EC50,Botrytis cinerea; [4],212 µg/mL
same,EC50,"Valsa mali; Cytospora mali, read-out: EC50",90 µg/mL
same,Relative Toxicity (Compared to Chlorothalonil),Valsa mali; [2],4.68
same,Relative Toxicity (Compared to Procymidone),Valsa mali; [3],4.78
same,EC50,Valsa mali; listed as 66#,89.4 µg/mL
same,EC50,"Colletotrichum capsici; Colletotrichum truncatum, read-out: EC50",130 µg/mL
same,Relative Toxicity (Compared to Chlorothalonil),Colletotrichum capsici; [2],3.23
same,Relative Toxicity (Compared to Procymidone),Colletotrichum capsici; [3],4.13
same,EC50,Colletotrichum capsici; listed as 66#,125.3 µg/mL
same,Relative Toxicity (Compared to Chlorothalonil),Sclerotinia sclerotiorum; [2],0.28
same,Relative Toxicity (Compared to Procymidone),Sclerotinia sclerotiorum; [3],0.31
same,EC50,Sclerotinia sclerotiorum; [4],227 µg/mL
same,Relative Toxicity (Compared to Chlorothalonil),Exserohilum turcicum; [2],3.21
same,Relative Toxicity (Compared to Procymidone),Exserohilum turcicum; [3],0.82
same,EC50,Exserohilum turcicum; listed as 66#,128.1 µg/mL
same,EC50,Exserohilum turcicum; read-out: EC50,130 µg/mL
same,Relative Toxicity (Compared to Chlorothalonil),F. graminearum; [2],1.82
same,Relative Toxicity (Compared to Procymidone),F. graminearum; [3],6.83
same,EC50,F. graminearum; Fusarium graminearum,120 µg/mL
same,EC50,F. graminearum; listed as 66#,124.5 µg/mL
same,Relative Toxicity (Compared to Chlorothalonil),Magnaporthe grisea; [2],2.45
same,Relative Toxicity (Compared to Procymidone),Magnaporthe grisea; [3],1.73
same,EC50,Magnaporthe grisea; Pyricularia oryzae,180 µg/mL
same,EC50,Magnaporthe grisea; listed as 66#,177.6 µg/mL
same,Relative Toxicity (Compared to Chlorothalonil),Phytophthora infestans; [2],1.23
same,Relative Toxicity (Compared to Procymidone),Phytophthora infestans; [3],8.36
same,EC50,Phytophthora infestans,90 µg/mL
same,EC50,Phytophthora infestans; listed as 66#,93 µg/mL
same,Control Effect,[1],67.71%
